# Reference: patent US8471005B2 (Cephalon, Inc., priority 2008, dated 2013)
# Tests used:
# ALK = target: T1, ALK (Homo sapiens, UniProt Q9UM73); assay: ALK Kinase Assay (ELISA/TRF, PLC-γ substrate); assay type: biochemical; conditions: ALK kinase inhibition, 1 μM ATP; read-out: ALK Potency
# T1 construct: host or cells: baculovirus expression system
# Protocol: Briefly, each 96-well plate was coated with […] of 10 μg/mL substrate (phospholipase C-γ) in Tris-buffered saline (TBS). […] The reaction was initiated by adding enzyme (30 ng/ml ALK) and was allowed to proceed at 37° C. for 15 minutes. Detection of the phosphorylated product was performed by adding 100 μl/well of Eu—N1 labeled PT66 antibody (Perkin Elmer # AD0041).
# Data analysis was performed using ActivityBase (IDBS, Guilford, UK). IC50 values were calculated by plotting percent inhibition versus log10 of the concentration of compound and fitting to the nonlinear regression sigmoidal dose-response (variable slope) equation in XLFit (IDBS, Guilford, UK).
# JAK2 = target: T2, JAK2 (Homo sapiens, UniProt O60674); assay: Recombinant Human JAK2 Kinase Assay (TRF); assay type: biochemical; conditions: JAK2 kinase inhibition, 0.2 μM ATP; read-out: JAK2 Potency
# T2 construct: host or cells: baculovirus expression system
# Protocol: Compounds were tested for their ability to inhibit the kinase activity of baculovirus-expressed JAK2 using the TRF detection system. […] The plates were coated first with 100 μL/well of 10 μg/mL Neutravidin (Pierce #31000, Rockford, Ill.) in TBS at 37° C. for 2 hours, followed by 100 μL/well of 1 μg/mL 15-mer peptide substrate (biotinyl-amino-hexanoyl-[…]-amide, Infinity Biotech Research and Resource, Aston, Pa.) at 37° C. for another hour. The JAK2 assay mixture (total volume=100 μL/well) consisting of 20 mM HEPES (pH 7.2), 0.2 μM ATP, 1 mM MnCl2, 0.1% BSA, and test compound (diluted in DMSO; 2.5% DMSO final in assay) was then added to the assay plate. Enzyme (15 ng/ml JAK2) was added and the reaction was allowed to proceed at room temperature for 20 minutes. Detection of the phosphorylated product was performed by adding 100 μL/well of Eu—N1 labeled PY100 antibody (PerkinElmer Life Sciences #AD0041, Boston, Mass.).
# T1 sequence (Q9UM73 19-1620): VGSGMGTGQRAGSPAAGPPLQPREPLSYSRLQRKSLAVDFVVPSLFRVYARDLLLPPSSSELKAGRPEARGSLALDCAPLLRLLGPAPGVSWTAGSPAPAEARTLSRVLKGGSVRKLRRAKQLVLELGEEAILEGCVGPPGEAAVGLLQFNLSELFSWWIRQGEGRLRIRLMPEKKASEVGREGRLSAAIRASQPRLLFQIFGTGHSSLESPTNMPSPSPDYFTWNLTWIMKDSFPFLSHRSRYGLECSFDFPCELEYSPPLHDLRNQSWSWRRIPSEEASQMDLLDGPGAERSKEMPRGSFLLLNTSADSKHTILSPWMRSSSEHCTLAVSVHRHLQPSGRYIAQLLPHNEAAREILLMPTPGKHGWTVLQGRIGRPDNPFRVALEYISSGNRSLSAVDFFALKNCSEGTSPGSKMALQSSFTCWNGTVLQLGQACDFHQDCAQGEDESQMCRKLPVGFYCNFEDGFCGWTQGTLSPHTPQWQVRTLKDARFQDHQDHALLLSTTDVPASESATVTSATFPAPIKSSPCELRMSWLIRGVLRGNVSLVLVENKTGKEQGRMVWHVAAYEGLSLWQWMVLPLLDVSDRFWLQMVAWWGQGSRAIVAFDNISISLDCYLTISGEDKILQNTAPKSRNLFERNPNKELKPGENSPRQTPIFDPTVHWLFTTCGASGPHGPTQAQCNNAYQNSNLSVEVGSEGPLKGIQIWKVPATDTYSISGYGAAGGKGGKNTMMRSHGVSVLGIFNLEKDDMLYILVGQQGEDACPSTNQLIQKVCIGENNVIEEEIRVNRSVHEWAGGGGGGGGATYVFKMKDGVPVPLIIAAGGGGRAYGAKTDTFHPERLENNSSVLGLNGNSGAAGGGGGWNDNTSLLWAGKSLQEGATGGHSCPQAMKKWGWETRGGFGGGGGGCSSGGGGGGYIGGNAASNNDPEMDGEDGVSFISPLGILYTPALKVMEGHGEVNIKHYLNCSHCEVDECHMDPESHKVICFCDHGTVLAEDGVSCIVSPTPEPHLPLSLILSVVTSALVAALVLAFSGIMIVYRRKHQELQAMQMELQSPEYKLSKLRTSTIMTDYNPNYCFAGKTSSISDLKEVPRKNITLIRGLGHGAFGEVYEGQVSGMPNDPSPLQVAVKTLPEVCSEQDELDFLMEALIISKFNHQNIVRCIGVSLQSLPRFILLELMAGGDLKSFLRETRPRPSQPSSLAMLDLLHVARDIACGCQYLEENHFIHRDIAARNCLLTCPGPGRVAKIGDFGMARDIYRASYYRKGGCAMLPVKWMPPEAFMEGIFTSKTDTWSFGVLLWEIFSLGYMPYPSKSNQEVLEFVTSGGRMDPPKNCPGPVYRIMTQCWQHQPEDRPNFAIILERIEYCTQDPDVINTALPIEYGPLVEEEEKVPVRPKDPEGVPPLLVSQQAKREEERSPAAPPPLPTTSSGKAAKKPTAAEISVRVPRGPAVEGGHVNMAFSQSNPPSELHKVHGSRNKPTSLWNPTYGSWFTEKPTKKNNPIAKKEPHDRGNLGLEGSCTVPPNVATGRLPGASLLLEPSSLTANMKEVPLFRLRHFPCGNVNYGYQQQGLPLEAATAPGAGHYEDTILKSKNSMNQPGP
# T2 sequence (O60674 whole entry): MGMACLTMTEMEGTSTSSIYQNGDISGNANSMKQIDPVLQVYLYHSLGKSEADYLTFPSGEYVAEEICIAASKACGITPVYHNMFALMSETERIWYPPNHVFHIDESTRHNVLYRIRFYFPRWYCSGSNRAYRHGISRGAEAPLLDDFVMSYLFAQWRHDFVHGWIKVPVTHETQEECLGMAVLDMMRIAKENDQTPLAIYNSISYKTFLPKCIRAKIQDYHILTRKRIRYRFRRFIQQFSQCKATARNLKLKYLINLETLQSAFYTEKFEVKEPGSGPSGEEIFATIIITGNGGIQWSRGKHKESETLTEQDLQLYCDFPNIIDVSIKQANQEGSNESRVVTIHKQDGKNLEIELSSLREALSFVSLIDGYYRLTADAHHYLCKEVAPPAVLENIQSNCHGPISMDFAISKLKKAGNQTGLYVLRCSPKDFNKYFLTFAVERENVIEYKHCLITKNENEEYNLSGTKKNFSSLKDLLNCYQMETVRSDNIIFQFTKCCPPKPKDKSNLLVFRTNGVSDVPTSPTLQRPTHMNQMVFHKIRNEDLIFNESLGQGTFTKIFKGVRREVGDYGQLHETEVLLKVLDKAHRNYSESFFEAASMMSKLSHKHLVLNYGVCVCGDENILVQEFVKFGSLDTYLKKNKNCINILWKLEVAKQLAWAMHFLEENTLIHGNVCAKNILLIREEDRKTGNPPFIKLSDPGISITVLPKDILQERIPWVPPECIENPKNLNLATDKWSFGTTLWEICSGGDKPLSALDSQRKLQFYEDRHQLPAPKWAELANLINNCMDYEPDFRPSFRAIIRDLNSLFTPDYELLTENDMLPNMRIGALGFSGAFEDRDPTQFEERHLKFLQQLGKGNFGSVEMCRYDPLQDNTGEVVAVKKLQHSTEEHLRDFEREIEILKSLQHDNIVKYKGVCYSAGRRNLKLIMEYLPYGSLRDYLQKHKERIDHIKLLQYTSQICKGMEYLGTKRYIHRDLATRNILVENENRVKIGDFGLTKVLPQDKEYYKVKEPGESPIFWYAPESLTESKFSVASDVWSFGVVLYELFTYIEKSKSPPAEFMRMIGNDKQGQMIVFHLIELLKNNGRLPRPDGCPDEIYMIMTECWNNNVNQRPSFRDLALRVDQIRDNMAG
SMILES,IC50 (ALK) [µM],IC50 (JAK2) [µM]
"COc1ccccc1-c1ccc2cnc(Nc3ccc4c(c3OC)CC(N3CCOCC3)CCC4)nn12 (racemic) [Example 768, (±)-1-Methoxy-8-morpholin-4-yl-6,7,8,9-tetrahydro-5H-enzocyclohepten-2-yl)-[7-(2-methoxy-phenyl)-pyrrolo[2,1-f][1,2,4]triazin-2-yl]-amine]",0.1 to 1,0.1 to 1
"CCN1CCCC(CC)(c2ccc(Nc3ncc4ccc(-c5ccccc5OC)n4n3)cc2)C1 (racemic) [Example 777, (±)-[4-(1,3-Diethyl-piperidin-3-yl)-phenyl]-[7-(2-methoxy-phenyl)pyrrolo-[2,1-f][1,2,4]triazin-2-yl]-amine]",< 0.1,< 0.1
"CCN1CCCC(CC)(c2ccc(Nc3ncc4ccc(-c5ccccc5N(C)S(C)(=O)=O)n4n3)cc2)C1 (racemic) [Example 778, (±)-N-(2-{2-[4-(1,3-Diethyl-piperidin-3-yl)-phenylamino]-pyrrolo[2,1-f][1,2,4]triazin-7-yl}-phenyl)-N-methyl-methanesulfonamide]",< 0.1,< 0.1
"COc1cc(N2CCC(N3CCOCC3)C2)ccc1Nc1ncc2ccc(-c3ccccc3OC)n2n1 (racemic) [Example 779, (±)-[2-Methoxy-4-(3-morpholin-4-yl-pyrrolidin-1-yl)-phenyl]-[7-(2-methoxyphenyl)-pyrrolo[2,1-f][1,2,4]triazin-2-yl]-amine]",0.1 to 1,0.1 to 1
"COc1cc(N2CCC(N3CCOCC3)C2)ccc1Nc1ncc2ccc(-c3ccccc3N(C)S(C)(=O)=O)n2n1 (racemic) [Example 782, (±)-N-(2-{2-[2-Methoxy-4-(3-morpholin-4-yl-pyrrolidin-1-yl)-phenylamino]-pyrrolo[2,1-f][1,2,4]triazin-7-yl}-phenyl)-N-methyl-methanesulfonamide]",< 0.1,0.1 to 1
"COc1cc(C2CCN(CC(O)CF)CC2)ccc1Nc1ncc2ccc(-c3ccccc3N(C)S(C)(=O)=O)n2n1 (racemic) [Example 826, (±)-N-[2-(2-{4-[1-(3-Fluoro-2-hydroxy-propyl)-piperidin-4-yl]-2-methoxy-phenylamino}-pyrrolo[2,1-f][1,2,4]triazin-7-yl)-phenyl]-N-methyl-methanesulfonamide]",< 0.1,0.1 to 1
"COc1cc([C@@]2(O)CCN(CCF)C[C@@H]2O)ccc1Nc1ncc2ccc(-c3ccccc3OC)n2n1 (racemic) [Example 833, (±)-(3S,4S)-1-(2-Fluoro-ethyl)-4-{3-methoxy-4-[7-(2-methoxy-phenyl)-pyrrolo[2,1-f][1,2,4]triazin-2-ylamino]-phenyl}-piperidine-3,4-diol]",< 0.1,< 0.1
"COc1cc([C@@H]2CCN(C(=O)OC(C)(C)C)C[C@@H]2O)ccc1Nc1ncc2ccc(-c3ccccc3OC)n2n1 (racemic) [Example 834, (±)-(3R,4S)-3-Hydroxy-4-{3-methoxy-4-[7-(2-methoxy-phenyl)-pyrrolo[2,1-f][1,2,4]triazin-2-ylamino]-phenyl}-piperidine-1-carboxylic acid tert-butyl ester]",0.1 to 1,0.1 to 1
"COc1cc(C2CCN(CC(N)=O)C2)ccc1Nc1ncc2ccc(-c3ccccc3OC)n2n1 (racemic) [Example 836, (±)-2-(3-{3-Methoxy-4-[7-(2-methoxy-phenyl)-pyrrolo[2,1-f][1,2,4]triazin-2-ylamino]-phenyl}-pyrrolidin-1-yl)-acetamide]",< 0.1,< 0.1
"COc1cc(C2CCN(CC(N)=O)C2)ccc1Nc1ncc2ccc(-c3ccccc3N(C)S(C)(=O)=O)n2n1 (racemic) [Example 837, (±)-2-[3-(4-{7-[2-(Methanesulfonyl-methyl-amino)-phenyl]-pyrrolo[2,1-f][1,2,4]triazin-2-ylamino}-3-methoxy-phenyl)-pyrrolidin-1-yl]-acetamide]",< 0.1,0.1 to 1
"COc1cc([C@@H]2CCN(CCF)C[C@@H]2O)ccc1Nc1ncc2ccc(-c3ccccc3OC)n2n1 (racemic) [Example 838, (±)-(3R,4S)-1-(2-Fluoro-ethyl)-4-{3-methoxy-4-[7-(2-methoxy-phenyl)-pyrrolo[2,1-f][1,2,4]triazin-2-ylamino]-phenyl}-piperidin-3-ol]",< 0.1,< 0.1
"COc1cc([C@@H]2CCNC[C@@H]2O)ccc1Nc1ncc2ccc(-c3ccccc3N(C)S(C)(=O)=O)n2n1 (racemic) [Example 841, (±)-N-(2-{2-[4-((3R,4S)-3-Hydroxy-piperidin-4-yl)-2-methoxy-phenylamino]-pyrrolo[2,1-f][1,2,4]triazin-7-yl}-phenyl)-N-methyl-methanesulfonamide]",< 0.1,1 to 10
"COc1cc([C@@H]2CCN(CC(N)=O)C[C@@H]2O)ccc1Nc1ncc2ccc(-c3ccccc3N(C)S(C)(=O)=O)n2n1 (racemic) [Example 842, (±)-2-[(3R,4S)-3-Hydroxy-4-(4-{7-[2-(methanesulfonyl-methyl-amino)-phenyl]-pyrrolo[2,1-f][1,2,4]triazin-2-ylamino}-3-methoxy-phenyl)-piperidin-1-yl]-acetamide]",< 0.1,0.1 to 1
"COc1cc([C@@H]2CCN(CCF)C[C@@H]2O)ccc1Nc1ncc2ccc(-c3ccccc3N(C)S(C)(=O)=O)n2n1 (racemic) [Example 843, (±)-N-[2-(2-{4-[(3R,4S)-1-(2-Fluoro-ethyl)-3-hydroxy-piperidin-4-yl]-2-methoxy-phenylamino}-pyrrolo[2,1-f][1,2,4]triazin-7-yl)-phenyl]-N-methyl-methanesulfonamide]",< 0.1,0.1 to 1
"COc1cc([C@@]2(O)CCN(CCF)C[C@@H]2O)ccc1Nc1ncc2ccc(-c3ccccc3N(C)S(C)(=O)=O)n2n1 (racemic) [Example 845, (±)-N-[2-(2-{4-[(3S,4S)-1-(2-Fluoro-ethyl)-3,4-dihydroxy-piperidin-4-yl]-2-methoxy-phenylamino}-pyrrolo[2,1-f][1,2,4]triazin-7-yl)-phenyl]-N-methyl-methanesulfonamide]",< 0.1,0.1 to 1
"COCCN1CC[C@](O)(c2ccc(Nc3ncc4ccc(-c5ccccc5N(C)S(C)(=O)=O)n4n3)c(OC)c2)[C@@H](O)C1 (racemic) [Example 846, (±)-N-[2-(2-{4-[(3S,4S)-3,4-Dihydroxy-1-(2-methoxy-ethyl)-piperidin-4-yl]-2-methoxy-phenylamino}-pyrrolo[2,1-f][1,2,4]triazin-7-yl)-phenyl]-N-methyl-methanesulfonamide]",< 0.1,0.1 to 1
"COc1cc([C@@H]2CCN(CCO)C[C@@H]2O)ccc1Nc1ncc2ccc(-c3ccccc3N(C)S(C)(=O)=O)n2n1 (racemic) [Example 847, (±)-N-[2-(2-{4-[(3R,4S)-3-Hydroxy-1-(2-hydroxy-ethyl)-piperidin-4-yl]-2-methoxy-phenylamino}-pyrrolo[2,1-f][1,2,4]triazin-7-yl)-phenyl]-N-methyl-methanesulfonamide]",< 0.1,0.1 to 1
"COc1cc(C2CCN(C)CC2C)ccc1Nc1ncc2ccc(-c3ccccc3OC)n2n1 (racemic) [Example 858, (±)-[4-(1,3-Dimethyl-piperidin-4-yl)-2-methoxy-phenyl]-[7-(2-methoxy-phenyl)-pyrrolo[2,1-f][1,2,4]triazin-2-yl]-amine]",< 0.1,0.1 to 1
"COc1cc(C2CCN(C)CC2OC)ccc1Nc1ncc2ccc(-c3ccccc3OC)n2n1 (racemic) [Example 859, (±)-[2-Methoxy-4-(3-methoxy-1-methyl-piperidin-4-yl)-phenyl]-[7-(2-methoxy-phenyl)-pyrrolo[2,1-f][1,2,4]triazin-2-yl]-amine]",< 0.1,< 0.1
"COc1cc(C2CCCN(CC(N)=O)C2)ccc1Nc1ncc2ccc(-c3ccccc3OC)n2n1 (racemic) [Example 860, (±)-2-(3-{3-Methoxy-4-[7-(2-methoxy-phenyl)-pyrrolo[2,1-f][1,2,4]triazin-2-ylamino]-phenyl}-piperidin-1-yl)-acetamide]",< 0.1,< 0.1
"COc1cc(C2CCCN(CC(N)=O)C2)ccc1Nc1ncc2ccc(-c3ccccc3N(C)S(C)(=O)=O)n2n1 (racemic) [Example 861, (±)-2-[3-(4-{7-[2-(Methanesulfonyl-methyl-amino)-phenyl]-pyrrolo[2,1-f][1,2,4]triazin-2-ylamino}-3-methoxy-phenyl)-piperidin-1-yl]-acetamide]",< 0.1,0.1 to 1
"COc1cc(C2CCN(C(=O)C3CCN3)CC2)ccc1Nc1ncc2ccc(-c3ccccc3OC)n2n1 (racemic) [Example 862, (±)-Azetidin-2-yl-(4-{3-methoxy-4-[7-(2-methoxy-phenyl)-pyrrolo[2,1-f][1,2,4]triazin-2-ylamino]-phenyl}-piperidin-1-yl)-methanone]",< 0.1,0.1 to 1
